# Reference: PMC9476787 (Chinese Herbal Medicines, 2020)
# Key:
# [1] = molecular target: T1, PTP1B (human, recombinant) (Homo sapiens, UniProt P18031); test: PTP1B inhibition assay; assay type: biochemical
# T1 sequence (P18031 1-435): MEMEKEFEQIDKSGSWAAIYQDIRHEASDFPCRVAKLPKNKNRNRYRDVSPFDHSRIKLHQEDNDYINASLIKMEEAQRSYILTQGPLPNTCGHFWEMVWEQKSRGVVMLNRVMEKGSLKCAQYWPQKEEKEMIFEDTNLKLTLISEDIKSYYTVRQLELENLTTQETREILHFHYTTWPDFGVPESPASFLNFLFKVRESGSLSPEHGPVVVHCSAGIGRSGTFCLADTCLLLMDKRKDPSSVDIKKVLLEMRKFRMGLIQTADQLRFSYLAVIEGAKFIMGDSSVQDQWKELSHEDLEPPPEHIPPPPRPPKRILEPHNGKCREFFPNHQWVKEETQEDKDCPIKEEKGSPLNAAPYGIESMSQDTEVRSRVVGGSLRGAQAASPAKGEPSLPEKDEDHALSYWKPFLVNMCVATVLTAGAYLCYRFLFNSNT
# yeast α-glucosidase = test: α-glucosidase inhibition assay; assay type: biochemical; settings: read-out: IC50 α-Glucosidase; Table 2; mean ± SD, n = 3
IC50 [1] [µM],IC50 (yeast α-glucosidase) [µM],Compound
> 100,69.41 ± 0.03,"CC[C@H](CC[C@@H](C)[C@H]1CC[C@H]2[C@@H]3CC=C4C[C@@H](O)CC[C@]4(C)[C@H]3CC[C@]12C)C(C)C [Compound 6, β-Sitosterol]"
–,41.04 ± 0.34,"CC1(C)CC[C@]2(C(=O)O)CC[C@]3(C)C(=CC[C@@H]4[C@@]5(C)CC[C@H](O)C(C)(C)[C@@H]5CC[C@]43C)[C@@H]2C1 [Compound 7, Oleanolic acid]"
